Measurements taken from PMC12592400, “A unique inhibitor conformation selectively targets the DNA polymerase PolC of Gram-positive priority pathogens” (Nature Communications, 2025).
Values joined by “and” are separate entries in the source; they are usually repeats but may differ in a detail not shown here. Equal values may be shown once.

Molecular target: T1, E. faecium DnaE (Enterococcus faecium, UniProt Q3XYP9)
T1 sequence (Q3XYP9 1-1104): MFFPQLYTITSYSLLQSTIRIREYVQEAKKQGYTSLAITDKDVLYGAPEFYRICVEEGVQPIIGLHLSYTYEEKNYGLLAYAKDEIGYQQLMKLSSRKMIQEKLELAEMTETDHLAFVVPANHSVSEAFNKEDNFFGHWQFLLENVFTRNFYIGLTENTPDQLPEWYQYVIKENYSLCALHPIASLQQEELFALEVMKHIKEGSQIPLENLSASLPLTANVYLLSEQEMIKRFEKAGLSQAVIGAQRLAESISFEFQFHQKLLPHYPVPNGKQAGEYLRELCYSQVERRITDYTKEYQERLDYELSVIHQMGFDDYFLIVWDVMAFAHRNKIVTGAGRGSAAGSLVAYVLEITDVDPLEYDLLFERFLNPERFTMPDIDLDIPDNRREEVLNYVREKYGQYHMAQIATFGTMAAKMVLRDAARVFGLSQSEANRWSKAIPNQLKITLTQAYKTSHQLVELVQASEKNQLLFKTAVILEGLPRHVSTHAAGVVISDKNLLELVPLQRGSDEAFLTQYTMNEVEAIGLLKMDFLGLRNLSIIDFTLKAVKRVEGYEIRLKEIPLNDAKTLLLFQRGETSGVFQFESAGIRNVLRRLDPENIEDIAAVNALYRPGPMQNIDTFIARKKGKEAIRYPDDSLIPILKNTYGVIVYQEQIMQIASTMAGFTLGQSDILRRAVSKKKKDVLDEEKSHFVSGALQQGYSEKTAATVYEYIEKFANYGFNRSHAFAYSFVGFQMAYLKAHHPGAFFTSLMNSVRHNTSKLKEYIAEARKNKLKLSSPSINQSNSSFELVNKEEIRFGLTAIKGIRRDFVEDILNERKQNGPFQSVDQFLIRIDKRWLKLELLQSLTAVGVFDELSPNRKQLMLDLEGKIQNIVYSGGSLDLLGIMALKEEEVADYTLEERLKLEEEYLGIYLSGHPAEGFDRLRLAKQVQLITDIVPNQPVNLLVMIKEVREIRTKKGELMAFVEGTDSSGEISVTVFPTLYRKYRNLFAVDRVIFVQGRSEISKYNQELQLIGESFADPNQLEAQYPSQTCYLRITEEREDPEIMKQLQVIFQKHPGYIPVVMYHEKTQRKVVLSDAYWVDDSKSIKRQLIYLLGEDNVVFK
Test: Real-time DNA primer extension assay
Format: biochemical
Details: for rate of activity (slope of fluorescence intensity change over time): Fig. 1f source data, E. faecium DnaE; for IC50: Fig. 1f, n = 3, ± SEM

SMILES	rate of activity (slope of fluorescence intensity change over time) (inhibitor 2.5 uM)	rate of activity (slope of fluorescence intensity change over time) (inhibitor 4 uM)	rate of activity (slope of fluorescence intensity change over time) (inhibitor 12.5 uM)	rate of activity (slope of fluorescence intensity change over time) (inhibitor 20 uM)	rate of activity (slope of fluorescence intensity change over time) (inhibitor 30 uM)	rate of activity (slope of fluorescence intensity change over time) (inhibitor 45 uM)	rate of activity (slope of fluorescence intensity change over time) (inhibitor 67.5 uM)	rate of activity (slope of fluorescence intensity change over time) (inhibitor 100 uM)	IC50 [µM]	inhibition towards E. faecium DnaE lower than PolC (in vitro, DnaE versus PolC)
O=c1[nH]c(NCc2ccc3c(c2)OC(F)(F)O3)nc2c(F)nn(CCO)c12 [ACX-801, 5-(((2,2-difluorobenzo[d][1,3]dioxol-5-yl)methyl)amino)-3-fluoro-1-(2-hydroxyethyl)-1,6-dihydro-7H-pyrazolo[4,3-d]pyrimidin-7-one]	49.5 and 44.4 and 49.3	51.3 and 51.4 and 45.3	48.4 and 47.3 and 48.0	47.8 and 51.2	50.3 and 47.9 and 46.9	47.9 and 46.1 and 47.4	46.5 and 39.7 and 47.4	45.5 and 39.2 and 38.1	> 100	
O=c1[nH]c(NCc2ccc(Cl)c(Cl)c2)nc2ncn(CCN3CCOCC3)c12 [IBZ, N^2-(3,4-dichlorobenzyl)-7-(2-[1-morpholinyl]ethyl)guanine]	49.8 and 49.1 and 50.9	37.6 and 41.6 and 39.1	40.9 and 43.1 and 37.2	38.6 and 37.7 and 36.0	35.7 and 37.2 and 30.7	28.3 and 28.4 and 27.5	18.3 and 24.4 and 21.1	19.9 and 17.8 and 14.2	89.3	~ seven-fold
